≈ marks a conversion by molar mass, not a printed value.
Assays:
[1] = Minimum inhibitory concentration against Chromobacterium violaceum (Gram-negative) was determined by broth dilution method; assay type: functional
[2] = system: Klebsiella aerogenes; assay: Minimum inhibitory concentration against Klebsiella aerogenes (Gram-negative) in broth; assay type: functional
[3] = system: Staphylococcus aureus; assay: Minimum inhibitory concentration against Staphylococcus aureus (Gram-positive) was determined by broth dilution method; assay type: functional
[4] = system: Bacillus subtilis; assay: Minimum inhibitory concentration against Bacillus subtilis (Gram-positive) was determined by broth dilution method; assay type: functional
[5] = system: Bacillus sp.; assay: Minimum inhibitory concentration against Bacillus sphaericus (Gram-positive) was determined by broth dilution method; assay type: functional, Lysinibacillus sphaericus; settings: Bacillus sp. (in: firmicutes)
[6] = system: Bacillus sp.; assay: Minimum inhibitory concentration against Bacillus sphaericus (Gram-positive) in broth; assay type: functional, Lysinibacillus sphaericus; settings: Bacillus sp. (in: firmicutes)
[7] = system: Pseudomonas aeruginosa; assay: Minimum inhibitory concentration against Pseudomonas aeruginosa (Gram-negative) by broth dilution method; assay type: functional

Row | Structure (SMILES) | MIC [1] | MIC [2] | MIC [3] | MIC [4] | MIC [5] | MIC [6] | MIC [7]
1 | c1ccc(CNc2nc(NCc3ccccc3)nc(NCc3ccccc3)n2)cc1 | 25 µg/mL (≈ 63.1 µM) | 25 µg/mL (≈ 63.1 µM) | 25 µg/mL (≈ 63.1 µM) | 25 µg/mL (≈ 63.1 µM) | 25 µg/mL (≈ 63.1 µM) | – | –
2 | Cc1ccc(CNc2nc(NCc3ccc(C)cc3)nc(NCc3ccc(C)cc3)n2)cc1 | – | – | – | – | 50 µg/mL (≈ 114 µM) | – | –
3 | c1ccc(Cc2nc(Cc3ccccc3)nc(Cc3ccccc3)n2)cc1 | 6.25 µg/mL (≈ 17.8 µM) | 6.25 µg/mL (≈ 17.8 µM) | 12.5 µg/mL (≈ 35.6 µM) | 12.5 µg/mL (≈ 35.6 µM) | 6.25 µg/mL (≈ 17.8 µM) | – | –
4 | COc1ccc(CNc2nc(NCc3ccc(OC)cc3)nc(NCc3ccc(OC)cc3)n2)cc1 | 25 µg/mL (≈ 51.4 µM) | 25 µg/mL (≈ 51.4 µM) | 25 µg/mL (≈ 51.4 µM) | 25 µg/mL (≈ 51.4 µM) | 12.5 µg/mL (≈ 25.7 µM) | – | –
5 | COc1ccc(Cc2nc(Cc3ccc(OC)cc3)nc(Cc3ccc(OC)cc3)n2)cc1 | 25 µg/mL (≈ 56.6 µM) | 25 µg/mL (≈ 56.6 µM) | 25 µg/mL (≈ 56.6 µM) | 50 µg/mL (≈ 113 µM) | 12.5 µg/mL (≈ 28.3 µM) | – | –
6 | Fc1ccc(COc2nc(OCc3ccc(F)cc3)nc(OCc3ccc(F)cc3)n2)cc1 | 12.5 µg/mL (≈ 27.6 µM) | 25 µg/mL (≈ 55.1 µM) | 25 µg/mL (≈ 55.1 µM) | 25 µg/mL (≈ 55.1 µM) | 12.5 µg/mL (≈ 27.6 µM) | – | –
7 | c1ccc(COc2nc(OCc3ccccc3)nc(OCc3ccccc3)n2)cc1 | 25 µg/mL (≈ 62.6 µM) | – | 25 µg/mL (≈ 62.6 µM) | 25 µg/mL (≈ 62.6 µM) | 25 µg/mL (≈ 62.6 µM) | – | –
8 | Clc1ccc(CNc2nc(NCc3ccc(Cl)cc3)nc(NCc3ccc(Cl)cc3)n2)cc1 | 25 µg/mL (≈ 50 µM) | – | – | – | 25 µg/mL (≈ 50 µM) | – | –
9 | Clc1ccc(COc2nc(OCc3ccc(Cl)cc3)nc(OCc3ccc(Cl)cc3)n2)cc1 | 25 µg/mL (≈ 49.7 µM) | 25 µg/mL (≈ 49.7 µM) | 12.5 µg/mL (≈ 24.9 µM) | 12.5 µg/mL (≈ 24.9 µM) | 12.5 µg/mL (≈ 24.9 µM) | – | –
10 | Fc1ccc(CNc2nc(NCc3ccc(F)cc3)nc(NCc3ccc(F)cc3)n2)cc1 | – | – | – | – | – | 50 µg/mL (≈ 111 µM) | –
11 | COc1ccc(COc2nc(OCc3ccc(OC)cc3)nc(OCc3ccc(OC)cc3)n2)cc1 | 6.25 µg/mL (≈ 12.8 µM) | 25 µg/mL (≈ 51.1 µM) | 25 µg/mL (≈ 51.1 µM) | 25 µg/mL (≈ 51.1 µM) | 25 µg/mL (≈ 51.1 µM) | – | –
12 | Clc1ccc(Cc2nc(Cc3ccc(Cl)cc3)nc(Cc3ccc(Cl)cc3)n2)cc1 | 25 µg/mL (≈ 55 µM) | 25 µg/mL (≈ 55 µM) | 25 µg/mL (≈ 55 µM) | 25 µg/mL (≈ 55 µM) | 25 µg/mL (≈ 55 µM) | – | –
13 | CC1(C)S[C@@H]2[C@H](NC(=O)Cc3ccccc3)C(=O)N2C1C(=O)O (single isomer, unassigned) [PENICILLIN G] | 12.5 µg/mL (≈ 37.4 µM) | 6.25 µg/mL (≈ 18.7 µM) | 1.56 µg/mL (≈ 4.67 µM) | 1.56 µg/mL (≈ 4.67 µM) | 3.12 µg/mL (≈ 9.35 µM) | – | 12.5 µg/mL (≈ 37.4 µM)
14 | CN[C@@H]1[C@H](O[C@H]2[C@H](O[C@H]3[C@H](O)[C@@H](O)[C@H](N=C(N)N)[C@@H](O)[C@@H]3N=C(N)N)O[C@@H](C)[C@]2(O)C=O)O[C@@H](CO)[C@H](O)[C@H]1O [STREPTOMYCIN] | 3.12 µg/mL (≈ 5.37 µM) | 1.56 µg/mL (≈ 2.69 µM) | 6.25 µg/mL (≈ 10.7 µM) | 6.25 µg/mL (≈ 10.7 µM) | 12.5 µg/mL (≈ 21.5 µM) | – | 3.12 µg/mL (≈ 5.37 µM)

Reference: ChEMBL document CHEMBL1141068, “Synthesis and antibacterial activity of 2,4,6-tri substituted s-triazines” (2005)
